# In paper PMC6286870 (European journal of pharmaceutics and biopharmaceutics : …, 2018):
# “Also recorded” adds a separate entry of the source.
# How the values were obtained:
# CXCR4 [1] = molecular target: T1, CXCR4 (Homo sapiens, UniProt P61073); experiment: Inhibition of CXCR4 mAb-binding to TZM-bl cells; conditions: serial dilutions in 1 μg/ml CXCR4 mAb, fixed TZM-bl cells, 40 min on ice
# HIV-1 IIIB = experiment: HIV-1 entry inhibition assay in TZM-bl reporter cells, X4 strain; assay type: cell-based
# CXCR4 [2] = molecular target: T1, CXCR4; experiment: cell-based; conditions: TZM-bl, read-out: Inhibition of cell-associated 4DV3-Biot
# T1 sequence (P61073 whole entry): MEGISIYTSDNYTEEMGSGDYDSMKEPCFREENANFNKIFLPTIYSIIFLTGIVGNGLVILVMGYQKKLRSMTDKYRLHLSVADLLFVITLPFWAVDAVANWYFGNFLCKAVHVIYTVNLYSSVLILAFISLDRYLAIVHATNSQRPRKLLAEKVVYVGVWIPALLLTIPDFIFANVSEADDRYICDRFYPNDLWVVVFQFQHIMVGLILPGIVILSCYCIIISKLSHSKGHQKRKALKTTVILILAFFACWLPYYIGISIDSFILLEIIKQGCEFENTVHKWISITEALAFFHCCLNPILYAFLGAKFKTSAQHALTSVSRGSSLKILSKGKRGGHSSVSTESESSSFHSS
structure (smiles),measurement,setting,value
"c1cc(CN2CCCNCCNCCCNCC2)ccc1CN1CCCNCCNCCCNCC1 [AMD3100, bicyclam JM-2987]","Inhibition of CXCR4 mAb clone 44708 binding to TZM-bl cells, in words",CXCR4 [1],poor ability to inhibit mAb binding; also recorded: ineffective at the tested concentrations
same,IC50,"HIV-1 IIIB; Human immunodeficiency virus 1, IIIB, TZM-bl, read-out: IC50 of HIV-1 entry inhibition, X4 strain HIV-1 IIIB",415 pM
same,Potency of HIV-1 IIIB entry inhibition relative to 4DV3-FITC,"HIV-1 IIIB; more potent than 4DV3-FITC, ratio of IC50, TZM-bl cells",1000 fold
same,inhibition at 20 µM,CXCR4 [2],31%
same,inhibition at 200 µM,CXCR4 [2],47%
